# Experiments:
# Test in all cases: relative viability (nuclei count vs DMSO), 5 days (fraction); higher = more cells survive
# [1] = system: 201T
# Procedure, shortened: (§1)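 Lung cancer cell lines, seeded in 1536-well plates, were treated the following day by pin tool with a single drug or with five library-drug doses (not always all listed) in √10 steps on top of a fixed anchor-drug dose. Cells were fixed and nuclei stained in one step after 5 days, and nuclei were counted. Relative viability is the nuclei count for treated wells divided by that for vehicle wells, reported as medians of duplicate plates.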
# [2] = system: COR-L23
# Procedure, shortened: as §1
# [3] = system: EPLC-272H
# Procedure, shortened: as §1
# [4] = system: H3255
# Procedure, shortened: as §1
# [5] = system: HCC-15
# Procedure, shortened: as §1
# [6] = system: LOU-NH91
# Procedure, shortened: as §1
# [7] = system: NCI-H1563
# Procedure, shortened: as §1
# [8] = system: NCI-H1650
# Procedure, shortened: as §1
# [9] = system: NCI-H1734
# Procedure, shortened: as §1
# [10] = system: NCI-H1793
# Procedure, shortened: as §1
# [11] = system: NCI-H2023
# Procedure, shortened: as §1
# [12] = system: NCI-H2170
# Procedure, shortened: as §1
# [13] = system: NCI-H2347
# Procedure, shortened: as §1
# [14] = system: NCI-H2405
# Procedure, shortened: as §1
# [15] = system: NCI-H3122
# Procedure, shortened: as §1
# [16] = system: NCI-H322M
# Procedure, shortened: as §1
# [17] = system: NCI-H441
# Procedure, shortened: as §1
# [18] = system: NCI-H520
# Procedure, shortened: as §1
# [19] = system: NCI-H647
# Procedure, shortened: as §1
# [20] = system: PC-14
# Procedure, shortened: as §1
# [21] = system: SW 900
# Procedure, shortened: as §1
# [22] = system: UMC-11
# Procedure, shortened: as §1
smiles,measurement,setting,value
CCN(CC)CCCCNc1ncc2cc(-c3cc(OC)cc(OC)c3)c(NC(=O)NC(C)(C)C)nc2n1 + N=C(N)NC(=N)NCCc1ccccc1 [Phenformin] (partner 250 µM),relative viability,[1]; first compound 0.01 µM,0.477
same,relative viability,[1]; first compound 0.03162 µM,0.479
same,relative viability,[1]; first compound 0.1 µM,0.51
same,relative viability,[1]; first compound 0.3162 µM,0.47
same,relative viability,[1]; first compound 1 µM,0.376
same,relative viability,[2]; first compound 0.01 µM,0.433
same,relative viability,[2]; first compound 0.03162 µM,0.444
same,relative viability,[2]; first compound 0.1 µM,0.511
same,relative viability,[2]; first compound 0.3162 µM,0.517
same,relative viability,[2]; first compound 1 µM,0.362
same,relative viability,[3]; first compound 0.01 µM,0.324
same,relative viability,[3]; first compound 0.03162 µM,0.3
same,relative viability,[3]; first compound 0.1 µM,0.236
same,relative viability,[3]; first compound 0.3162 µM,0.296
same,relative viability,[3]; first compound 1 µM,0.288
same,relative viability,[4]; first compound 0.01 µM,0.347
same,relative viability,[4]; first compound 0.03162 µM,0.336
same,relative viability,[4]; first compound 0.1 µM,0.27
same,relative viability,[4]; first compound 0.3162 µM,0.408
same,relative viability,[4]; first compound 1 µM,0.356
same,relative viability,[5]; first compound 0.01 µM,0.466
same,relative viability,[5]; first compound 0.03162 µM,0.535
same,relative viability,[5]; first compound 0.1 µM,0.526
same,relative viability,[5]; first compound 0.3162 µM,0.484
same,relative viability,[5]; first compound 1 µM,0.424
same,relative viability,[6]; first compound 0.01 µM,0.572
same,relative viability,[6]; first compound 0.03162 µM,0.683
same,relative viability,[6]; first compound 0.1 µM,0.795
same,relative viability,[6]; first compound 0.3162 µM,0.797
same,relative viability,[6]; first compound 1 µM,0.713
same,relative viability,[7]; first compound 0.01 µM,0.662
same,relative viability,[7]; first compound 0.03162 µM,0.66
same,relative viability,[7]; first compound 0.1 µM,0.689
same,relative viability,[7]; first compound 0.3162 µM,0.582
same,relative viability,[7]; first compound 1 µM,0.549
same,relative viability,[8]; first compound 0.01 µM,0.456
same,relative viability,[8]; first compound 0.03162 µM,0.416
same,relative viability,[8]; first compound 0.1 µM,0.503
same,relative viability,[8]; first compound 0.3162 µM,0.319
same,relative viability,[8]; first compound 1 µM,0.232
same,relative viability,[9]; first compound 0.01 µM,0.356
same,relative viability,[9]; first compound 0.03162 µM,0.363
same,relative viability,[9]; first compound 0.1 µM,0.384
same,relative viability,[9]; first compound 0.3162 µM,0.364
same,relative viability,[9]; first compound 1 µM,0.354
same,relative viability,[10]; first compound 0.01 µM,0.416
same,relative viability,[10]; first compound 0.03162 µM,0.427
same,relative viability,[10]; first compound 0.1 µM,0.353
same,relative viability,[10]; first compound 0.3162 µM,0.341
same,relative viability,[10]; first compound 1 µM,0.335
same,relative viability,[11]; first compound 0.01 µM,0.415
same,relative viability,[11]; first compound 0.03162 µM,0.43
same,relative viability,[11]; first compound 0.1 µM,0.5
same,relative viability,[11]; first compound 0.3162 µM,0.432
same,relative viability,[11]; first compound 1 µM,0.4
same,relative viability,[12]; first compound 0.01 µM,0.417
same,relative viability,[12]; first compound 0.03162 µM,0.416
same,relative viability,[12]; first compound 0.1 µM,0.414
same,relative viability,[12]; first compound 0.3162 µM,0.413
same,relative viability,[12]; first compound 1 µM,0.345
same,relative viability,[13]; first compound 0.01 µM,0.381
same,relative viability,[13]; first compound 0.03162 µM,0.24
same,relative viability,[13]; first compound 0.1 µM,0.278
same,relative viability,[13]; first compound 0.3162 µM,0.505
same,relative viability,[13]; first compound 1 µM,0.379
same,relative viability,[14]; first compound 0.01 µM,0.38
same,relative viability,[14]; first compound 0.03162 µM,0.412
same,relative viability,[14]; first compound 0.1 µM,0.518
same,relative viability,[14]; first compound 0.3162 µM,0.427
same,relative viability,[14]; first compound 1 µM,0.315
same,relative viability,[15]; first compound 0.01 µM,0.39
same,relative viability,[15]; first compound 0.03162 µM,0.362
same,relative viability,[15]; first compound 0.1 µM,0.633
same,relative viability,[15]; first compound 0.3162 µM,0.367
same,relative viability,[15]; first compound 1 µM,0.321
same,relative viability,[16]; first compound 0.01 µM,0.77
same,relative viability,[16]; first compound 0.03162 µM,0.779
same,relative viability,[16]; first compound 0.1 µM,0.791
same,relative viability,[16]; first compound 0.3162 µM,0.784
same,relative viability,[16]; first compound 1 µM,0.668
same,relative viability,[17]; first compound 0.01 µM,0.826
same,relative viability,[17]; first compound 0.03162 µM,0.87
same,relative viability,[17]; first compound 0.1 µM,1.02
same,relative viability,[17]; first compound 0.3162 µM,0.835
same,relative viability,[17]; first compound 1 µM,0.933
same,relative viability,[18]; first compound 0.01 µM,0.453
same,relative viability,[18]; first compound 0.03162 µM,0.519
same,relative viability,[18]; first compound 0.1 µM,0.623
same,relative viability,[18]; first compound 0.3162 µM,0.335
same,relative viability,[18]; first compound 1 µM,0.191
same,relative viability,[19]; first compound 0.01 µM,0.451
same,relative viability,[19]; first compound 0.03162 µM,0.59
same,relative viability,[19]; first compound 0.1 µM,0.556
same,relative viability,[19]; first compound 0.3162 µM,0.804
same,relative viability,[19]; first compound 1 µM,0.239
same,relative viability,[20]; first compound 0.01 µM,0.439
same,relative viability,[20]; first compound 0.03162 µM,0.426
same,relative viability,[20]; first compound 0.1 µM,0.661
same,relative viability,[20]; first compound 0.3162 µM,0.87
same,relative viability,[20]; first compound 1 µM,0.387
same,relative viability,[21]; first compound 0.01 µM,0.529
same,relative viability,[21]; first compound 0.03162 µM,0.678
same,relative viability,[21]; first compound 0.3162 µM,0.48
same,relative viability,[21]; first compound 1 µM,0.364
same,relative viability,[22]; first compound 0.01 µM,0.346
same,relative viability,[22]; first compound 0.03162 µM,0.353
same,relative viability,[22]; first compound 0.1 µM,0.371
same,relative viability,[22]; first compound 0.3162 µM,0.343
same,relative viability,[22]; first compound 1 µM,0.362

# Reference: the supplement of paper PMC10307832
